The record followed here is patent US11873287B2, “Piperidine-2,6-dione derivatives and ulcerative colitis treating” (TIANJIN HEMAY PHARMACEUTICAL SCI-TECH CO., LTD, priority 2016, dated 2024).

Data set [1] relates to DSS-Induced inflammatory Bowel Disease Models in Mice. Kind of data set: DSS-induced inflammatory bowel disease model in mice (Biological Example 5, 1.3% DSS). The settings on record: 30 mg/Kg i.g. Q.D, 1.3% DSS days 0-5; for inhibition in vivo at 30 mg/kg: Mus musculus, po, read-out: Inhibitory Rate of Colonic Reduction. The class given is in vivo, C57BL/6 mice. How it is done: (§1) 40 healthy female C57BL/6 mice having weight of 16-19 g were randomly divided into 4 groups in accordance with weight. There were 10 mice in each group (see Table 6 below). The first day of the experiment was recorded as Day 0. The administration regimen and induction regimen were detailed in Table 6. The change in weight of experimental animals was recorded every day. […] Samples of animal colonic tissues were obtained to measure the length. One-way ANOVA analysis of mice weights was performed by SPSS22. Statistical analyses between groups were performed. Mann-Whitney U non-parametric test was performed on the length of colon.
The experimental method used in the present biological example is identical to those in Biological Example 3.
One-way ANOVA analysis of mice body weights and colonic weights per length was performed by SPSS22. Statistical analyses between groups were performed.
(§2) Calculation Formula of Inhibitory Rate of Colonic Reduction: (Length of Colon in Administration Group−Length of Colon in Model Group)/(Length of Colon in Blank Group−Length of Colon in Model Group)

The subject of data set [2] is ICR mice. Kind of data set: Acute toxicity experiment of single oral administration in mice. Conditions: 1000 mg/Kg single oral dose. The class given is in vivo. As for the experimental part:
The mice were fasted one day before the experiment. On the day of the experiment, 6 mice (ICR mice, body weight of 19-21 g, three females and three males) were selected in each experiment group. First of all, one female and one male were selected to orally give 1000 mg/Kg, and observed for 5-10 minutes. If there were no obvious side effects, the remaining 4 animals were orally given the same dose, and observed for 10-15 minutes. If no animal died, the animals were placed in a box to balancedly feed for 7 days. The state was observed and the body weight was recorded daily.
Observation Indexes within 0-15 Minutes After Administration
Activity: restlessness, hyperactivity
Nervous system response: tremor, spasm, convulsion, ataxia, posture abnormality, etc.
Autonomic nerve: exophthalmos, salivation, tears, urination (hematuria), diarrhea, piloerection, breathing, etc.
Observation Indexes Over 7 Days
State of Animal: lethargy, hyperactivity, excitement, hair loss, diarrhea, abnormal behavior, death, etc.

Data set [3] has as its system DSS-Induced inflammatory Bowel Disease Models in Mice. Briefly: DSS-induced inflammatory bowel disease model in mice (Biological Example 3, 1.0-1.5% DSS). The class given is in vivo, C57BL/6 mice. Conditions: 30 mg/Kg i.g. Q.D. How it is done:
as §1, §2

Setting [4] is: DSS 1.0% days 0-4, 1.5% days 5-9.

Structures are written as SMILES.

Take `COCCN1C(=O)CCC(C)(N2C(=O)c3cccc(N)c3C2=O)C1=O` (centres unmarked) [Example 15, 4-amino-2-(1-(2-methoxyethyl)-3-methyl-2,6-dioxopiperidin-3-yl)isoindolin-1,3-dione]: in data set [1], the “Length (cm, Mean ± SD) of colon” value turned out to be 6.6 ± 0.4 cm and the inhibition in vivo at 30 mg/kg was 72.7%.
For `COCCCCN1C(=O)CCC(N2C(=O)c3cccc(N)c3C2=O)C1=O` (centres unmarked) [Example 22, 4-amino-2-(1-(4-methoxybutyl)-2,6-dioxopiperidin-3-yl)isoindolin-1,3-dione], the “Daily Body Weight of Tested Female Mice (Mean ± SD)” value in data set [2] (Day 1) turned out to be 18.5 ± 0.6 g; in data set [2] (Day 2), 21.8 ± 0.3 g; in data set [2] (Day 3) it was 22.9 ± 0.4 g; in data set [2] (Day 4) it was 24.0 ± 1.0 g; in data set [2] (Day 5) it was 25.0 ± 0.4 g; in data set [2] (Day 6), 25.3 ± 0.6 g. For the same compound, in data set [2] (Day 7), the “Daily Body Weight of Tested Female Mice (Mean ± SD)” value is on record as 25.6 ± 0.2 g. Also, the “Daily Body Weight of Tested Male Mice (Mean ± SD)” value in data set [2] (Day 1) worked out at 17.1 ± 0.3 g; in data set [2] (Day 2) it was 22.9 ± 0.8 g; in data set [2] (Day 3), 23.5 ± 0.9 g; in data set [2] (Day 4), 25.2 ± 0.5 g; in data set [2] (Day 5), 27.2 ± 1.9 g; in data set [2] (Day 6), 27.1 ± 1.8 g. The “Daily Body Weight of Tested Male Mice (Mean ± SD)” value in data set [2] (Day 7) is reported as 27.4 ± 1.9 g. For the same compound, the “Length (cm, Mean ± SD) of colon” value in data set [1] worked out at 6.9 ± 0.4 cm. The inhibition in vivo at 30 mg/kg in data set [1] is 100%.
As to `COCCN1C(=O)CCC(N2C(=O)c3cccc(C)c3C2=O)C1=O` (centres unmarked) [Example 24, 4-methyl-2-(1-(2-methoxyethyl)-2,6-dioxopiperidin-3-yl)-isoindolin-1,3-dione], the “Daily Body Weight of Tested Female Mice (Mean ± SD)” value is 18.4 ± 0.7 g in data set [2] (Day 1); 22.4 ± 1.0 g in data set [2] (Day 2); 23.4 ± 1.0 g in data set [2] (Day 3); 23.6 ± 0.9 g in data set [2] (Day 4); 24.3 ± 0.6 g in data set [2] (Day 5); 24.7 ± 0.6 g in data set [2] (Day 6). Besides, the “Daily Body Weight of Tested Female Mice (Mean ± SD)” value in data set [2] (Day 7) stood at 24.8 ± 1.5 g. For the same compound, the “Daily Body Weight of Tested Male Mice (Mean ± SD)” value in data set [2] (Day 1) turned out to be 17.7 ± 0.2 g; in data set [2] (Day 2) it was 22.3 ± 0.7 g; in data set [2] (Day 3), 24.5 ± 1.0 g; in data set [2] (Day 4), 25.2 ± 1.0 g; in data set [2] (Day 5) it was 27.2 ± 1.3 g; in data set [2] (Day 6), 28.1 ± 2.0 g. Also, in data set [2] (Day 7), the “Daily Body Weight of Tested Male Mice (Mean ± SD)” value was determined as 28.9 ± 1.9 g. Besides, the “Length (cm, Mean ± SD) of colon” value in data set [1] is reported as 6.7 ± 0.6 cm. The inhibition in vivo at 30 mg/kg in data set [1] was determined as 81.8%.
As for `COCCN1C(=O)CCC(N2C(=O)c3ccc(F)cc3C2=O)C1=O` (centres unmarked) [Example 21, 5-fluoro-2-(1-(2-methoxyethyl)-2,6-dioxopiperidin-3-yl)-isoindolin-1,3-dione], in data set [1], the “Length (cm, Mean ± SD) of colon” value is 6.9 ± 0.4 cm and the inhibition in vivo at 30 mg/kg worked out at 100%.
For `CCOCCN1C(=O)CCC(N2C(=O)c3cccc(F)c3C2=O)C1=O` (centres unmarked) [Example 20, 4-fluoro-2-(1-(2-ethoxyethyl)-2,6-dioxopiperidin-3-yl)isoindolin-1,3-dione], the “Daily Body Weight of Tested Female Mice (Mean ± SD)” value in data set [2] (Day 1) came to 18.7 ± 0.4 g; in data set [2] (Day 2), 21.6 ± 1.0 g; in data set [2] (Day 3) it was 22.1 ± 1.0 g; in data set [2] (Day 4), 22.1 ± 1.0 g; in data set [2] (Day 5), 23.0 ± 1.4 g; in data set [2] (Day 6), 23.3 ± 0.2 g. The “Daily Body Weight of Tested Female Mice (Mean ± SD)” value in data set [2] (Day 7) amounted to 23.7 ± 0.8 g. For the same compound, the “Daily Body Weight of Tested Male Mice (Mean ± SD)” value was 18.8 ± 1.0 g in data set [2] (Day 1); 24.0 ± 1.1 g in data set [2] (Day 2); 25.3 ± 1.2 g in data set [2] (Day 3); 25.3 ± 1.2 g in data set [2] (Day 4); 26.7 ± 1.2 g in data set [2] (Day 5); 29.0 ± 1.1 g in data set [2] (Day 6). Further, the “Daily Body Weight of Tested Male Mice (Mean ± SD)” value in data set [2] (Day 7) is 29.3 ± 0.7 g. The “Summary of toxic response of tested animals in 7 Days” value in data set [2] (Female) is reported as “Decrease of activity was observed in two animals in 10 minutes”; in data set [2] (Male), “Decrease of activity was observed in one animal 11 minutes after”. Also, the “Length (cm, Mean ± SD) of colon” value in data set [1] amounted to 6.9 ± 0.6 cm. For the same compound, the inhibition in vivo at 30 mg/kg in data set [1] came out at 100%.
On to `COCCN1C(=O)CCC(N2C(=O)c3ccc(OC)c(N)c3C2=O)C1=O` (centres unmarked) [Example 25, 4-amino-5-methoxy-2-(1-(2-methoxyethyl)-2,6-dioxopiperidin-3-yl)-isoindolin-1,3-dione], for which, in data set [1], the “Length (cm, Mean ± SD) of colon” value is on record as 6.7 ± 0.5 cm and the inhibition in vivo at 30 mg/kg turned out to be 81.8%.
With `COCCN1C(=O)CCC(N2C(=O)c3cccc(F)c3C2=O)C1=O` (centres unmarked) [Example 4, 4-fluoro-2-(1-(2-methoxyethyl)-2,6-dioxopiperidin-3-yl)isoindolin-1,3-dione], the “Daily Body Weight of Tested Female Mice (Mean ± SD)” value is 18.4 ± 0.4 g in data set [2] (Day 1); 21.8 ± 0.5 g in data set [2] (Day 2); 23.2 ± 0.6 g in data set [2] (Day 3); 23.5 ± 1.2 g in data set [2] (Day 4); 24.7 ± 0.9 g in data set [2] (Day 5); 24.2 ± 1.2 g in data set [2] (Day 6). Besides, in data set [2] (Day 7), the “Daily Body Weight of Tested Female Mice (Mean ± SD)” value stood at 24.0 ± 0.8 g. The “Daily Body Weight of Tested Male Mice (Mean ± SD)” value turned out to be 17.6 ± 0.2 g in data set [2] (Day 1); 22.2 ± 0.3 g in data set [2] (Day 2); 23.6 ± 0.6 g in data set [2] (Day 3); 24.7 ± 0.6 g in data set [2] (Day 4); 26.7 ± 0.4 g in data set [2] (Day 5); 27.6 ± 0.8 g in data set [2] (Day 6). Besides, in data set [2] (Day 7), the “Daily Body Weight of Tested Male Mice (Mean ± SD)” value stood at 28.2 ± 0.1 g. Further, in data set [3], the “body weights compared with model control group” value was “higher than that of the model control group”. Moreover, the “Average Length of Colon (Mean ± SD)” value in data set [3] (setting [4]) is given as 6.3 ± 0.3 cm. Besides, in data set [3] (setting [4]), the “Inhibitory Rate of Colonic Reduction” value came out at 54.5%. Also, the “Body Weights of Experimental Mice (Mean ± SD)” value (shortened to “Body Weights … (Mean ± SD)”) in data set [3] (Day 0) is 17.4 ± 1.3 g; in data set [3] (Day 1), 17.6 ± 1.1 g; in data set [3] (Day 2) it was 18.0 ± 0.9 g; in data set [3] (Day 3), 17.8 ± 1.0 g; in data set [3] (Day 4), 17.9 ± 0.9 g; in data set [3] (Day 5), 18.1 ± 1.1 g. For the same compound, the “Body Weights … (Mean ± SD)” value is recorded as 17.7 ± 0.9 g in data set [3] (Day 6); 18.1 ± 0.9 g in data set [3] (Day 7); 17.8 ± 0.8 g in data set [3] (Day 8); 17.6 ± 0.8 g in data set [3] (Day 9); 17.0 ± 0.7 g in data set [3] (Day 10); 16.7 ± 0.7 g in data set [3] (Day 11). Besides, the “Body Weights … (Mean ± SD)” value in data set [3] (Day 12) is on record as 17.0 ± 0.9 g.
